# Patent publication US20210254056A1, “IDENTIFICATION AND TARGETED MODULATION OF GENE SIGNALING NETWORKS” (CAMP4 THERAPEUTICS CORPORATION, priority 2017, published 2021)
# System: hepatocytes
# Assay: RNA-seq of hepatocytes treated with Phase III failure compounds
# Experimental: RNA-seq was performed to determine the effects of the compounds on hepatocytes.
# Significance was determined by the criteria of FPKM≥0.5, a log 2(fold-change)≥1, and a […].
# [1] = RNA-seq, hepatocytes, gene named in the value
compound,measurement,setting,value
CCN(CC)CCN(Cc1ccc(-c2ccc(C(F)(F)F)cc2)cc1)C(=O)Cn1c(SCc2ccc(F)cc2)nc(=O)c2c1CCC2 [Darapladib],"RNA-seq results, CYP2B6 expression",,−0.12
same,"RNA-seq results, CYP2C19 expression",,−0.01
same,"RNA-seq results, CYP2D6 expression",,−0.21
same,"RNA-seq results, CYP3A4 expression",,−0.47
same,"RNA-seq results, CYP7B1 expression",,−0.03
same,"RNA-seq results, CYP39A1 expression",,−0.23
same,RNA-seq results: CYP2B6 expression,,0.25
same,RNA-seq results: CYP2C19 expression,,0.54
same,RNA-seq results: CYP2D6 expression,,−0.06
same,RNA-seq results: CYP3A4 expression,,0.07
same,RNA-seq results: CYP7B1 expression,,−0.46
same,RNA-seq results: CYP39A1 expression,,−0.07
same,significant modulation of expression of disease genes,"RNA-seq, q≤0.05, hepatocytes, genes in the value or listed in the block",significantly (q≤0.05) modulate expression
same,genes down-regulated by the compound,[1],ANGPTL3 was observed to be down-regulated
same,genes up-regulated by the compound,[1],"up-regulated genes: LDLR, PCSK9, and HMGCR"
same,RNA-seq results: A1BG expression,"gene A1BG, hepatocytes",0.01
same,RNA-seq results: AGTR1 expression,"gene AGTR1, hepatocytes",−0.18
same,RNA-seq results: AGXT expression,"gene AGXT, hepatocytes",−0.38
same,RNA-seq results: AHI1 expression,"gene AHI1, hepatocytes",0.12
same,RNA-seq results: AMPD3 expression,"gene AMPD3, hepatocytes",0.42
same,RNA-seq results: AMT expression,"gene AMT, hepatocytes",−0.35
same,RNA-seq results: ANGPTL3 expression,"gene ANGPTL3, hepatocytes",−1.20
same,RNA-seq results: ANKS4B expression,"gene ANKS4B, hepatocytes",−0.52
same,RNA-seq results: ANKS6 expression,"gene ANKS6, hepatocytes",0.11
same,RNA-seq results: ANPEP expression,"gene ANPEP, hepatocytes",0.11
same,RNA-seq results: AOC2 expression,"gene AOC2, hepatocytes",0.28
same,RNA-seq results: APOA2 expression,"gene APOA2, hepatocytes",−0.33
same,RNA-seq results: APOA5 expression,"gene APOA5, hepatocytes",−0.19
same,RNA-seq results: APOB expression,"gene APOB, hepatocytes",0.54
same,RNA-seq results: COG5 expression,"gene COG5, hepatocytes",0.11
same,RNA-seq results: COG6 expression,"gene COG6, hepatocytes",−0.09
same,RNA-seq results: COL1A1 expression,"gene COL1A1, hepatocytes",0.18
same,RNA-seq results: COX6A1 expression,"gene COX6A1, hepatocytes",−0.08
same,RNA-seq results: CP expression,"gene CP, hepatocytes",0.77
same,RNA-seq results: CPS1 expression,"gene CPS1, hepatocytes",−0.89
same,RNA-seq results: CPT1A expression,"gene CPT1A, hepatocytes",0.11
same,RNA-seq results: CPT2 expression,"gene CPT2, hepatocytes",−0.16
same,RNA-seq results: CROT expression,"gene CROT, hepatocytes",−0.49
same,RNA-seq results: CSPP1 expression,"gene CSPP1, hepatocytes",0.24
same,RNA-seq results: CTC1 expression,"gene CTC1, hepatocytes",−0.01
same,RNA-seq results: CTDSP2 expression,"gene CTDSP2, hepatocytes",0.52
same,RNA-seq results: CTH expression,"gene CTH, hepatocytes",1.17
same,RNA-seq results: CTNS expression,"gene CTNS, hepatocytes",−0.11
same,RNA-seq results: CTSF expression,"gene CTSF, hepatocytes",0.25
same,RNA-seq results: CTSK expression,"gene CTSK, hepatocytes",0.31
same,RNA-seq results: CYB5A expression,"gene CYB5A, hepatocytes",−0.12
same,RNA-seq results: CYB5R3 expression,"gene CYB5R3, hepatocytes",−0.21
same,RNA-seq results: CYP27A1 expression,"gene CYP27A1, hepatocytes",−0.18
same,RNA-seq results: DAO expression,"gene DAO, hepatocytes",−1.06
same,RNA-seq results: DBT expression,"gene DBT, hepatocytes",−0.13
same,RNA-seq results: DCDC2 expression,"gene DCDC2, hepatocytes",−1.43
same,RNA-seq results: DCXR expression,"gene DCXR, hepatocytes",−0.74
same,RNA-seq results: FABP1 expression,"gene FABP1, hepatocytes",0.07
same,RNA-seq results: FADD expression,"gene FADD, hepatocytes",−0.45
same,RNA-seq results: FAM111A expression,"gene FAM111A, hepatocytes",0.1
same,RNA-seq results: FAM111B expression,"gene FAM111B, hepatocytes",−2.15
same,RNA-seq results: FAN1 expression,"gene FAN1, hepatocytes",−0.03
same,RNA-seq results: FARS2 expression,"gene FARS2, hepatocytes",−0.42
same,RNA-seq results: FASLG expression,"gene FASLG, hepatocytes",−1.32
same,RNA-seq results: FGA expression,"gene FGA, hepatocytes",−0.32
same,RNA-seq results: FGD1 expression,"gene FGD1, hepatocytes",−0.46
same,RNA-seq results: FGFR2 expression,"gene FGFR2, hepatocytes",−0.13
same,RNA-seq results: FIG4 expression,"gene FIG4, hepatocytes",−0.07
same,RNA-seq results: FIS1 expression,"gene FIS1, hepatocytes",−0.35
same,RNA-seq results: FTCD expression,"gene FTCD, hepatocytes",−0.56
same,RNA-seq results: FTH1 expression,"gene FTH1, hepatocytes",0.44
same,RNA-seq results: FUCA1 expression,"gene FUCA1, hepatocytes",−0.13
same,RNA-seq results: FXN expression,"gene FXN, hepatocytes",−0.22
same,RNA-seq results: G6PC3 expression,"gene G6PC3, hepatocytes",−0.52
same,RNA-seq results: G6PC expression,"gene G6PC, hepatocytes",0.6
same,RNA-seq results: G6PD expression,"gene G6PD, hepatocytes",−0.41
same,RNA-seq results: GALK1 expression,"gene GALK1, hepatocytes",−0.61
same,RNA-seq results: GALK2 expression,"gene GALK2, hepatocytes",−0.14
same,RNA-seq results: GALT expression,"gene GALT, hepatocytes",−0.58
same,RNA-seq results: GATA6 expression,"gene GATA6, hepatocytes",0
same,RNA-seq results: GATM expression,"gene GATM, hepatocytes",−0.52
same,RNA-seq results: GBA expression,"gene GBA, hepatocytes",−0.23
same,RNA-seq results: GBE1 expression,"gene GBE1, hepatocytes",−0.11
same,RNA-seq results: GCH1 expression,"gene GCH1, hepatocytes",−0.19
same,RNA-seq results: GCKR expression,"gene GCKR, hepatocytes",−0.06
same,RNA-seq results: GCLC expression,"gene GCLC, hepatocytes",−0.02
same,RNA-seq results: GOSH expression,"gene GOSH, hepatocytes",−1.21
same,RNA-seq results: RRM2B,"gene RRM2B, hepatocytes",−0.49
same,RNA-seq results: RSAD1,"gene RSAD1, hepatocytes",−0.13
same,RNA-seq results: SAMHD1,"gene SAMHD1, hepatocytes",−0.48
same,RNA-seq results: SC5D,"gene SC5D, hepatocytes",0.37
same,RNA-seq results: SCARB1,"gene SCARB1, hepatocytes",−0.07
same,RNA-seq results: SCN9A,"gene SCN9A, hepatocytes",−0.42
same,RNA-seq results: SDCCAG8,"gene SDCCAG8, hepatocytes",−0.06
same,RNA-seq results: SEPN1,"gene SEPN1, hepatocytes",−0.10
same,RNA-seq results: SERAC1,"gene SERAC1, hepatocytes",−0.02
same,RNA-seq results: SERPINA1,"gene SERPINA1, hepatocytes",−0.05
same,RNA-seq results: SERPING1,"gene SERPING1, hepatocytes",0.21
same,RNA-seq results: SERPINI1,"gene SERPINI1, hepatocytes",−0.42
same,RNA-seq results: SETBP1,"gene SETBP1, hepatocytes",−0.10
same,RNA-seq results: SFXN4,"gene SFXN4, hepatocytes",−0.38
same,RNA-seq results: SLC10A1,"gene SLC10A1, hepatocytes",−0.68
same,RNA-seq results: SLC10A3,"gene SLC10A3, hepatocytes",0.47
same,RNA-seq results: SLC10A5,"gene SLC10A5, hepatocytes",−0.54
same,RNA-seq results: SLC10A7,"gene SLC10A7, hepatocytes",−0.22
same,RNA-seq results: SLC11A2,"gene SLC11A2, hepatocytes",0.39
same,RNA-seq results: SLC19A1,"gene SLC19A1, hepatocytes",−0.26
same,RNA-seq results: SLC19A2,"gene SLC19A2, hepatocytes",0.54
same,RNA-seq results: SLC19A3,"gene SLC19A3, hepatocytes",−0.22
same,RNA-seq results: SLC22A1,"gene SLC22A1, hepatocytes",−0.28
same,RNA-seq results: SLC22A5,"gene SLC22A5, hepatocytes",−0.23
same,RNA-seq results: SLC25A1,"gene SLC25A1, hepatocytes",0.24
same,RNA-seq results: SLC25A10,"gene SLC25A10, hepatocytes",−0.48
same,RNA-seq results: SLC25A12,"gene SLC25A12, hepatocytes",−0.22
same,RNA-seq results: SLC25A13,"gene SLC25A13, hepatocytes",0.20
same,RNA-seq results: SLC25A15,"gene SLC25A15, hepatocytes",−0.28
same,RNA-seq results: SLC25A19,"gene SLC25A19, hepatocytes",0.03
same,RNA-seq results: SLC25A20,"gene SLC25A20, hepatocytes",−0.62
same,RNA-seq results: SLC25A29,"gene SLC25A29, hepatocytes",0.92
same,RNA-seq results: SLC25A32,"gene SLC25A32, hepatocytes",−0.21
